Source: ChEMBL document CHEMBL1143809, “New bis-N9-(methylphenylmethyl)purine derivatives: synthesis and antitumor activity” (2007)

Key:
Format in all cases: functional
[1] = system: UO-31; experiment: Growth inhibition of human UO31 cells after 48 hrs by SRB protein assay; conditions: UO-31, 48 h
[2] = system: MCF7; experiment: Growth inhibition of human MCF7 cells after 48 hrs by SRB protein assay; conditions: MCF7, 48 h
[3] = system: HT-29; experiment: Growth inhibition of human HT29 cells after 48 hrs by SRB protein assay; conditions: HT-29, 48 h
[4] = system: MDA-MB-231; experiment: Growth inhibition of human MDA-MB-231 cells after 48 hrs by SRB protein assay; conditions: MDA-MB-231, 48 h
[5] = system: U-251; experiment: Growth inhibition of human U251 cells after 48 hrs by SRB protein assay; conditions: U-251, 48 h
[6] = system: ACHN; experiment: Growth inhibition of human ACHN cells after 48 hrs by SRB protein assay
[7] = system: SF-268; experiment: Growth inhibition of human SF268 cells after 48 hrs by SRB protein assay; conditions: SF-268, 48 h
[8] = system: CCRF-CEM; experiment: Growth inhibition of human CCRF-CEM cells after 48 hrs by SRB protein assay
[9] = system: SK-MEL-2; experiment: Growth inhibition of human SK-MEL-2 cells after 48 hrs by SRB protein assay; conditions: SK-MEL-2, 48 h
[10] = system: OVCAR-4; experiment: Growth inhibition of human OVCAR4 cells after 48 hrs by SRB protein assay; conditions: OVCAR-4, 48 h
[11] = system: OVCAR-3; experiment: Growth inhibition of human OVCAR-3 cells after 48 hrs by SRB protein assay; conditions: OVCAR-3, 48 h
[12] = Growth inhibition of human NCL-H322M cells after 48 hrs by SRB protein assay
[13] = system: SNB-19; experiment: Growth inhibition of human SNB19 cells after 48 hrs by SRB protein assay; conditions: SNB-19, 48 h
[14] = Growth inhibition of human NCL-H522 cells after 48 hrs by SRB protein assay; conditions: NCL-H522, 48 h
[15] = system: SF-295; experiment: Growth inhibition of human SF295 cells after 48 hrs by SRB protein assay; conditions: SF-295, 48 h
[16] = system: SN12C; experiment: Growth inhibition of human SN12C cells after 48 hrs by SRB protein assay
[17] = Growth inhibition of human LOX MIVI cells after 48 hrs by SRB protein assay
[18] = system: 786-0; experiment: Growth inhibition of human 786-0 cells after 48 hrs by SRB protein assay; conditions: 786-0, 48 h
[19] = system: NCI-H460; experiment: Anticancer activity against human NCL-H460 cells assessed as growth at 100 uM after 48 hrs by SRB protein assay relative to control; conditions: NCI-H460, 48 h, read-out: Activity
[20] = system: CAKI-1; experiment: Growth inhibition of human CAKI1 cells after 48 hrs by SRB protein assay; conditions: CAKI-1, 48 h
[21] = system: IGROV-1; experiment: Growth inhibition of human IGROV1 cells after 48 hrs by SRB protein assay; conditions: IGROV-1, 48 h
[22] = system: MDA-MB-435; experiment: Growth inhibition of human MDA-MB-435 cells after 48 hrs by SRB protein assay; conditions: MDA-MB-435, 48 h
[23] = system: HCC 2998; experiment: Growth inhibition of human HCC2998 cells after 48 hrs by SRB protein assay; conditions: HCC 2998, 48 h
[24] = system: HCT-116; experiment: Growth inhibition of human HCT116 cells after 48 hrs by SRB protein assay; conditions: HCT-116, 48 h
[25] = system: NCI/ADR-RES; experiment: Growth inhibition of human NCI/ADR-RES cells after 48 hrs by SRB protein assay
[26] = read-out: LC50 (the source's name)

For `Clc1nc(Cl)c2ncn(Cc3ccc(Cn4cnc5c(Cl)nc(Cl)nc54)cc3)c2n1`, the GI50 [1] was 10 µM, the LC50 [1] was 46.8 µM and the TGI [1] was 21.4 µM. The GI50 [2] was 10.5 µM, the LC50 [2] was 61.7 µM and the TGI [2] was 25.1 µM. It also gave a GI50 [3] of less than 0.01 µM, an LC50 [3] of 39.8 µM and a TGI [3] of 15.8 µM. For the same compound, the LC50 (50% lethal concentration) [4] was 46.8 µM, the TGI [4] was 21.9 µM and the GI50 [5] was 13.8 µM. For the same compound, the TGI [5] was 26.9 µM, the CC50 [5, 26] was 51.3 µM and the GI50 [6] was 12.6 µM. The LC50 [6] was 50.1 µM, the TGI [6] was 25.1 µM and the GI50 [7] was 15.5 µM. The LC50 [7] was greater than 100 µM, the TGI [7] was 38.9 µM and the GI50 [8] was 10.2 µM. For the same compound, the TGI [8] was 22.9 µM, the CC50 [8, 26] was 51.3 µM and the TGI [9] was 23.4 µM. It also gave a CC50 [9, 26] of 49 µM, a GI50 [10] of 14.3 µM and an LC50 [10] of 52.5 µM. The TGI [10] was 27.5 µM, the GI50 [11] was 13.5 µM and the LC50 [11] was 51.3 µM. It also gave a TGI [11] of 26.3 µM, a TGI [12] of 33.9 µM and a CC50 [12, 26] of 91.2 µM. The TGI [13] was 21.9 µM, the CC50 [13, 26] was 46.8 µM and the GI50 [14] was 12.3 µM. The LC50 [14] was 52.5 µM, the TGI [14] was 25.7 µM and the GI50 [15] was 19.1 µM. For the same compound, the LC50 [15] was 85.1 µM, the TGI [15] was 40.7 µM and the GI50 [16] was 14.1 µM. For the same compound, the LC50 [16] was 52.5 µM, the TGI [16] was 27.5 µM and the GI50 [17] was 2.88 µM. For the same compound, the LC50 [17] was 41.7 µM, the TGI [17] was 17.4 µM and the GI50 [18] was 14.5 µM. The TGI [18] was 27.5 µM, the CC50 [18, 26] was 52.5 µM and the growth at 100 µM [19] was 0%. The GI50 [20] was 15.8 µM, the TGI [20] was 30.2 µM and the CC50 [20, 26] was 57.5 µM. For the same compound, the GI50 [21] was 12.9 µM, the LC50 (50% lethal concentration) [21] was 50.1 µM and the TGI [21] was 25.1 µM. For the same compound, the GI50 [22] was 16.6 µM, the LC50 [22] was 61.7 µM and the TGI [22] was 31.6 µM. The LC50 [23] was 50.1 µM, the TGI [23] was 25.1 µM and the GI50 [24] was 9.33 µM. The TGI [24] was 21.4 µM, the CC50 [24, 26] was 46.8 µM and the GI50 [25] was 13.8 µM. It also gave an LC50 [25] of 60.2 µM and a TGI [25] of 28.8 µM.
